Laboratory results reported in PMC8838197, “Coumarin-Resveratrol-Inspired Hybrids as Monoamine Oxidase B Inhibitors: 3-Phenylcoumarin versus trans-6-Styrylcoumarin” (Molecules, 2022).
Where “and” joins values, the source holds several entries; their conditions need not be identical. Identical values can stand only once. Like-named read-outs stand apart in the source and are kept apart here.

Assays:
[1] = tested on: MAO-A; details: cited from earlier work; for pIC50 MAO-A: Table S8; for MAO-A pIC50: data set compounds
[2] = tested on: MAO-B; design: pIC50 MAO-B: unit not given here; details: cited from earlier work; for MAO-B pIC50: data set compounds
[3] = molecular target: T1, hMAO-B (Homo sapiens, UniProt P27338); experiment: hMAO-B inhibition, Amplex Red MAO assay, recombinant enzyme
T1 sequence (P27338 1-520): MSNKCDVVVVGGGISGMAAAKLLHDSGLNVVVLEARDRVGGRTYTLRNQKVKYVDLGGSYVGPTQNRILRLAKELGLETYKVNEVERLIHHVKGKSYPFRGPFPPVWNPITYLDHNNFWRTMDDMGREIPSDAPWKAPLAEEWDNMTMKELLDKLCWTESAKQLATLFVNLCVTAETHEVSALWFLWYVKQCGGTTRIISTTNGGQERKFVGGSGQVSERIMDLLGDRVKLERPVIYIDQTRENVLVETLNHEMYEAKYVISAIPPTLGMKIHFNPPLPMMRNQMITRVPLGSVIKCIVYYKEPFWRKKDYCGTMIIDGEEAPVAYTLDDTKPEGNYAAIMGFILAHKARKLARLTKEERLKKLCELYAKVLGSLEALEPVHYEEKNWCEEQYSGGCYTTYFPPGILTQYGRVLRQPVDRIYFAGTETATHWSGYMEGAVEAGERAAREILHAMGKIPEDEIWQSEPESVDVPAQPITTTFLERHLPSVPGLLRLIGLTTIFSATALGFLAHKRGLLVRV

[4] = molecular target: T2, hMAO-A (Homo sapiens, UniProt P21397); experiment: hMAO-A inhibition, Amplex Red MAO assay, recombinant enzyme
T2 sequence (P21397 1-527): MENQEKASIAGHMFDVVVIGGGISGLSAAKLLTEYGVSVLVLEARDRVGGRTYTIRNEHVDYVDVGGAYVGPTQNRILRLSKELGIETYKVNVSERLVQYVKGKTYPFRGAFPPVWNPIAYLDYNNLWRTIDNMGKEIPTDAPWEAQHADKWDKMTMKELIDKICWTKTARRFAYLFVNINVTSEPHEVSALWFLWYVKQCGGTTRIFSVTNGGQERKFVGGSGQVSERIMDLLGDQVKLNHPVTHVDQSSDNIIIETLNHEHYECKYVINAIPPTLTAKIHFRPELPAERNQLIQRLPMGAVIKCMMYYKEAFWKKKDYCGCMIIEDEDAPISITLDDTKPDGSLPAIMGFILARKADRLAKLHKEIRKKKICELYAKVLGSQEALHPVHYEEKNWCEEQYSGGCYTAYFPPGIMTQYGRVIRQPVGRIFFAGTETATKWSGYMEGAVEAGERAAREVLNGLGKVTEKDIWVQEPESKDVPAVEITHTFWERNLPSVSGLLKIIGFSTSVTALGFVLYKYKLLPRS

## CCC(=O)Nc1ccc2c(C)cc(=O)oc2c1 [Compound 154]
[1]
  pIC50 MAO-A: 4.015

## Cc1ccc2oc(=O)c(-c3ccc([N+](=O)[O-])cc3)cc2c1 [Compound 88]
[1]
  pIC50 MAO-A: 5.379
[2]; Table S8
  pIC50 MAO-B: 8.678

## O=c1oc2cc(O)ccc2cc1-c1ccsc1 [Compound 143]
[1]
  pIC50 MAO-A: 5.118
[2]; Table S8
  pIC50 MAO-B: 5.071

## O=c1oc2c(O)c(O)ccc2cc1-c1ccsc1 [Compound 144]
[1]
  pIC50 MAO-A: 5.879
[2]; Table S8
  pIC50 MAO-B: 5.323

## CC(=O)Nc1ccc2c(C)cc(=O)oc2c1 [Compound 153]
[1]
  pIC50 MAO-A: 4.59

## COc1cc(-c2cc3cc(C)cc(Br)c3oc2=O)cc(OC)c1OC [Compound 11]
[1]
  pIC50 MAO-A: 4.506
  MAO-A pIC50: < 5.0
[2]; Table S8
  pIC50 MAO-B: 5.311

## O=c1oc2c(O)cccc2cc1-c1cc(Br)cs1 [Compound 145]
[1]
  pIC50 MAO-A: 5.207

## O=C(O)COc1ccc2oc(=O)c(-c3ccc(Br)cc3)cc2c1 [Compound 73]
[1]
  pIC50 MAO-A: 4.898
  MAO-A pIC50: < 5.0
[2]; Table S8
  pIC50 MAO-B: 8.154
[2]
  MAO-B pIC50: > 6.5

## Cc1ccc2oc(=O)c(-c3ccccc3O)cc2c1 [Compound 24]
[1]
  pIC50 MAO-A: 4.666
[2]; Table S8
  pIC50 MAO-B: 6.921
[2]
  MAO-B pIC50: > 6.5 and < 6.5

## O=c1oc2ccc(OC3CCCC3)cc2cc1-c1cccc(Br)c1 [Compound 72]
[1]
  pIC50 MAO-A: 4.354
  MAO-A pIC50: < 5.0
[2]; Table S8
  pIC50 MAO-B: 5.747

## Cc1cc(=O)oc2cc(NC(=O)C(C)C)ccc12 [Compound 155]
[1]
  pIC50 MAO-A: 4.611
[2]; Table S8
  pIC50 MAO-B: 4.937

## Cc1ccc(-c2cc3cc(O)ccc3oc2=O)cc1 [Compound 14]
[1]
  pIC50 MAO-A: 4.604
[2]; Table S8
  pIC50 MAO-B: 7.173

## O=c1oc2ccc3ccccc3c2cc1-c1cccc(O)c1 [Compound 82]
[1]
  pIC50 MAO-A: 4.591
[1]; Table S12
  Experimental pIC50 (MAO-A inhibitors): 4.354
[2]; Table S8
  pIC50 MAO-B: 5.296

## O=c1oc2ccccc2cc1-c1ccccc1 [3-Phenylcoumarin]
[3]
  S.I. (hMAO-B selectivity index = IC50 (hMAO-A)/IC50 (hMAO-B)): >8.47
[3]; Table 3
  pIC50 MAO-B Exp.: 4.928
[3]; read-out: IC50 hMAO-B, recombinant hMAO-B expressed in baculovirus-infected BTI insect cells, n = 5
  IC50: 11.8 µM
[4]
  IC50: > 100 µM

## O=c1oc2ccc(O)cc2cc1-c1ccccc1 [Compound 63]
[1]
  pIC50 MAO-A: 4.524
[2]; Table S8
  pIC50 MAO-B: 5.47

## COc1ccc(-c2cc3cccc(OC)c3oc2=O)cc1 [Compound 55]
[1]
  MAO-A pIC50: < 5.0

## O=c1ccc2cc(/C=C/c3ccccc3)ccc2o1 [trans-6-Styrylcoumarin]
[3]
  IC50: 0.11 µM
  S.I. (hMAO-B selectivity index = IC50 (hMAO-A)/IC50 (hMAO-B)): >909.09
[3]; comparison with ref 13
  times more active on MAO-B than the best compound of the resveratrol derivative series of Kong et al.: 110
[3]; ratio of IC50
  times more active on MAO-B than 3-phenylcoumarin: 107
  times more active on MAO-B than trans-resveratrol: 267
other
  melting point: 134 to 135 °C
[4]
  IC50: > 100 µM

## Cc1ccc(C(=O)Nc2cc3cc(C)ccc3oc2=O)cc1 [Compound 41]
[1]
  pIC50 MAO-A: 4.337
[2]; Table S8
  pIC50 MAO-B: 6.77

## O=c1oc2ccc3ccccc3c2cc1-c1ccc(O)cc1 [Compound 81]
[1]
  pIC50 MAO-A: 4.626
[2]; Table S8
  pIC50 MAO-B: 6.337

## O=c1oc2ccc(O)cc2cc1-c1ccc(Br)cc1 [Compound 68]
[1]
  pIC50 MAO-A: 4.892
[2]; Table S8
  pIC50 MAO-B: 7.495

## Cc1cc(=O)oc2cc(NC(=O)CBr)ccc12 [Compound 158]
[1]
  pIC50 MAO-A: 4.107
  MAO-A pIC50: < 5.0
[2]; Table S8
  IC50 MAO-B: In
  pIC50 MAO-B: In

## O=c1oc2cc(O)ccc2cc1-c1cc(Br)cs1 [Compound 146]
[1]
  pIC50 MAO-A: 5.038
[2]; Table S8
  pIC50 MAO-B: 6.854

## COc1ccc(-c2cc3cc([N+](=O)[O-])ccc3oc2=O)cc1 [Compound 54]
[1]
  pIC50 MAO-A: 5.932
[2]; Table S8
  pIC50 MAO-B: 8.523

## Cc1ccc(NC(=O)c2cc3cc(C)ccc3oc2=O)cc1 [Compound 100]
[2]; Table S8
  pIC50 MAO-B: 7.857

## COc1ccc(-c2cc3cccc(C)c3oc2=O)cc1 [Compound 37]
[1]
  pIC50 MAO-A: 4.666
  MAO-A pIC50: < 5.0
[2]; Table S8
  pIC50 MAO-B: 8.465

## Cc1cc(=O)oc2cc(NC(=O)c3ccco3)ccc12 [Compound 163]
[1]
  pIC50 MAO-A: 4.521
  MAO-A pIC50: < 5.0
[2]; Table S8
  pIC50 MAO-B: 5.3

## O=c1oc2ccc(OC3CCCC3)cc2cc1-c1ccc(Br)cc1 [Compound 70]
[2]; Table S8
  pIC50 MAO-B: 5.154

## Cc1ccc(NC(=O)c2coc3ccc(C)cc3c2=O)cc1 [Compound 126]
[2]; Table S8
  pIC50 MAO-B: 6.819

## O=c1oc2c(O)c(O)ccc2cc1-c1cc(Br)cs1 [Compound 147]
[1]
  pIC50 MAO-A: 5.216
[2]; Table S8
  pIC50 MAO-B: 4.663

## COc1cc(OC)cc(-c2cc3cccc(C)c3oc2=O)c1 [Compound 137]
[2]; Table S8
  pIC50 MAO-B: 8.187
[2]
  MAO-B pIC50: > 6.5

## COc1ccc2occ(C(=O)Nc3cccc(C)c3)c(=O)c2c1 [Compound 130]
[2]; Table S8
  pIC50 MAO-B: 7.662

## COc1cc(OC)cc(-c2cc3cc(C)ccc3oc2=O)c1 [Compound 3]
[2]; Table S8
  pIC50 MAO-B: 8.047

## Cc1ccc2oc(=O)c(C(=O)Nc3ccccc3C)cc2c1 [Compound 98]
[2]; Table S8
  pIC50 MAO-B: 7.928

## C#CCNc1cc2ccccc2oc1=O [Compound 148]
[2]; Table S8
  pIC50 MAO-B: 6.022

## COc1ccc2oc(=O)c(-c3ccc(Br)cc3)cc2c1 [Compound 66, 3-(4′-bromophenyl)-6-mehtoxycoumarin]
[2]; Table S8
  pIC50 MAO-B: 9.495
[2]
  MAO-B pIC50: > 6.5

## O=C(Nc1c(O)c2ccccc2oc1=O)c1cccs1 [Compound 95]
[2]; Table S8
  pIC50 MAO-B: 4.81

## Cc1ccc2oc(=O)c(C(=O)Nc3cccc(O)c3)cc2c1 [Compound 113]
[2]; Table S8
  pIC50 MAO-B: 7.343

## Cc1cccc2cc(-c3ccc(Br)cc3)c(=O)oc12 [Compound 39]
[2]; Table S8
  pIC50 MAO-B: 7.701
[2]
  MAO-B pIC50: > 6.5

## Cc1ccc2occ(C(=O)Nc3cccc(O)c3)c(=O)c2c1 [Compound 125]
[2]; Table S8
  pIC50 MAO-B: 7.107

## COc1ccc(-c2c(O)c3cc(C)ccc3oc2=O)cc1Cl [Compound 29]
[2]; Table S8
  pIC50 MAO-B: 4.37

## COc1ccccc1-c1cc2c(ccc3ccccc32)oc1=O [Compound 77]
[2]; Table S8
  pIC50 MAO-B: 7.385

## COc1ccc(-c2cc3cc(OC)ccc3oc2=O)cc1 [Compound 52]
[2]; Table S8
  pIC50 MAO-B: 7.143

## Cc1ccc2oc(=O)c(-c3cccc(O)c3)cc2c1 [Compound 23]
[1]
  pIC50 MAO-A: 4.455
[2]; Table S8
  pIC50 MAO-B: 6.187

## COc1ccc(-c2cc3cc(C)cc(Br)c3oc2=O)cc1 [Compound 9]
[2]; Table S8
  pIC50 MAO-B: 8.491

## Cc1ccc2occ(C(=O)Nc3ccccc3)c(=O)c2c1 [Compound 122]
[2]; Table S8
  pIC50 MAO-B: 7.671

## COc1cc(C(=O)Nc2c(O)c3ccccc3oc2=O)cc(OC)c1OC [Compound 92]
[2]; Table S8
  pIC50 MAO-B: 4.433

## Cc1ccc(C(=O)Nc2cc3ccccc3oc2=O)cc1 [Compound 42]
[2]; Table S8
  pIC50 MAO-B: 5.099

## Cc1cccc(NC(=O)c2cc3cc(C)ccc3oc2=O)c1 [Compound 111]
[2]; Table S8
  pIC50 MAO-B: 8.124

## Cc1cc(=O)oc2cc(NC(=O)CC(C)C)ccc12 [Compound 156]
[1]
  pIC50 MAO-A: 4.339
[2]; Table S8
  pIC50 MAO-B: 6.357

## COc1cc(-c2cc3cc(C)ccc3oc2=O)cc(OC)c1OC [Compound 4]
[2]; Table S8
  pIC50 MAO-B: 6.794

## O=C(Nc1cc2ccccc2oc1=O)c1ccc(Cl)cc1 [Compound 45]
[2]; Table S8
  pIC50 MAO-B: 5.71

## Cc1ccc2oc(=O)c(-c3ccccc3N)cc2c1 [Compound 89]
[2]
  MAO-B pIC50: 5.664

## COc1cc(-c2cc3c(ccc4ccccc43)oc2=O)cc(OC)c1OC [Compound 79]
[2]; Table S8
  pIC50 MAO-B: 5.851

## O=C(Nc1cc2ccccc2oc1=O)c1cccnc1 [Compound 96]
[2]; Table S8
  pIC50 MAO-B: 4.676

## O=c1oc2c(O)cccc2cc1-c1ccsc1 [Compound 142]
[1]
  pIC50 MAO-A: 4.754

## Cc1cc(=O)oc2cc(NC(=O)c3cccs3)ccc12 [Compound 162]
[2]; Table S8
  pIC50 MAO-B: 5.799
